Test [1] addresses purified DHFR of strain 157/4696 of Staphylococcus aureus (Staphylococcus aureus, UniProt P13955). Description: biochemical.
The subject of test [2] is Staphylococcus aureus 101. Description: MIC against Staphylococcus aureus 101. Particulars: Staphylococcus aureus 101, MRSA- and trimethoprim-resistant, clinical isolate, read-out: MIC Sa101. It counts as cell-based.
For test [3], the system named is Streptococcus pneumoniae 1/1. Description: MIC against Streptococcus pneumoniae 1/1. The test is classed as cell-based. The conditions noted are these: Streptococcus pneumoniae 1/1, trimethoprim- and penicillin-resistant, serotype 6, clinical isolate, read-out: MIC Sp1/1.
Test [4] has as its target T1, purified DHFR of strain Sp1/1 of Streptococcus pneumoniae (Streptococcus pneumoniae serotype 4, UniProt Q54801).
T1 sequence (Q54801 1-168 I100L): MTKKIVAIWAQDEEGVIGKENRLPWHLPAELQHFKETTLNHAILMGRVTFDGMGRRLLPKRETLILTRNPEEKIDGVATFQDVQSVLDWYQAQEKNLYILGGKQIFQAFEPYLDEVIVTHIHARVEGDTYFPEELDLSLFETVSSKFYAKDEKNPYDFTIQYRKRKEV
It counts as biochemical. The conditions noted are these: IC50 against purified DHFR of strain Sp1/1.

The structures appear in SMILES notation. Values after ≈ are worked out from the molar mass of the structure shown. Where two headings read alike, the source gives them in different places.

Sequence of purified DHFR of strain 157/4696 of Staphylococcus aureus (P13955 whole entry): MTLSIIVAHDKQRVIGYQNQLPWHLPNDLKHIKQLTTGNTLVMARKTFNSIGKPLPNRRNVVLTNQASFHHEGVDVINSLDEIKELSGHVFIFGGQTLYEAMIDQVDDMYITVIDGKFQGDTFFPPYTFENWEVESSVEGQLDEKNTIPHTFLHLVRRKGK

Turning to `CCOc1cc(Cc2cnc(N)nc2N)cc(OS(=O)(=O)CC)c1-c1cccc(N)c1` [Example 14-b, Ethanesulphonic acid 3′-amino-4-(2,4-diamino-pyrimidin-5-ylmethyl)-6-ethoxy-biphenyl-2-yl ester], the IC50 came to 0.14 µM in test [1] and 0.019 µM in test [4] (Table 2). Also, the MIC in test [2] (Table 2) and in test [3] (Table 2) was 2 µg/mL (≈ 4.51 µM) throughout.

Regarding `CCCS(=O)(=O)Oc1cc(Cc2cnc(N)nc2N)cc(OCC)c1-c1cccc(N)c1` [Example 14-d], the IC50 was 0.082 µM in test [1] and 0.016 µM in test [4] (Table 2). The MIC in test [2] (Table 2) worked out at 2 µg/mL (≈ 4.37 µM); in test [3] (Table 2), 1 µg/mL (≈ 2.19 µM).

On to `CCOc1cc(Cc2cnc(N)nc2N)cc(OS(=O)(=O)c2ccc(OC)c(F)c2)c1-c1cccc(N)c1` [Example 14-e, 3-Fluoro-4-methoxy-benzenesulphonic acid 3′-amino-4-(2,4-diamino-pyrimidin-5-ylmethyl)-6-ethoxy-biphenyl-2-yl ester], for which the IC50 worked out at 0.41 µM in test [1] and 0.012 µM in test [4] (Table 2). Further, the MIC in test [2] (Table 2) turned out to be 8 µg/mL (≈ 14.8 µM); in test [3] (Table 2), 1 µg/mL (≈ 1.85 µM).

As to `CCOc1cc(Cc2cnc(N)nc2N)cc(OS(=O)(=O)c2cccs2)c1-c1cccc(N)c1` [Example 14-f, Thiophene-2-sulphonic acid 3′-amino-4-(2,4-diamino-pyrimidin-5-ylmethyl)-6-ethoxy-biphenyl-2-yl ester], the values for the IC50 in test [1] and in test [4] (Table 2) were 0.32 µM and 0.0018 µM, respectively. Besides, the MIC came out at 4 µg/mL (≈ 8.04 µM) in test [2] (Table 2) and 1 µg/mL (≈ 2.01 µM) in test [3] (Table 2).

As for `CCOc1cc(Cc2cnc(N)nc2N)cc(OS(=O)(=O)CC(C)C)c1-c1cccc(N)c1` [Example 14-h, 2-Methyl-propane-1-sulphonic acid 3′-amino-4-(2,4-diamino-Dyrimidin-5-ylmethyl)-6-ethoxy-biphenyl-2-yl ester], the IC50 was 0.32 µM in test [1] and 0.0048 µM in test [4] (Table 2). The MIC in test [2] (Table 2) turned out to be 2 µg/mL (≈ 4.24 µM); in test [3] (Table 2), 0.5 µg/mL (≈ 1.06 µM).

As to `CCOc1cc(Cc2cnc(N)nc2N)cc(OS(=O)(=O)CC(C)(C)C)c1-c1cccc(N)c1` [Example 14-i, 2,2-Dimethyl-propane-1-sulphonic acid 3′-amino-4-(2,4-diamino-pyrimidin-5-ylmethyl)-6-ethoxy-biphenyl-2-yl ester], the results for the IC50 in test [1] and in test [4] (Table 2) were 0.22 µM and 0.0054 µM, respectively. In addition, the values for the MIC in test [2] (Table 2) and in test [3] (Table 2) were 8 µg/mL (≈ 16.5 µM) and 0.5 µg/mL (≈ 1.03 µM), respectively.

For `CCOc1cc(Cc2cnc(N)nc2N)cc(OS(=O)(=O)C(C)C)c1-c1cccc(N)c1` [Example 14c, Propane-2-sulphonic acid 3′-amino-4-(2,4-diamino-pyrimidin-5-ylmethyl)-6-ethoxy-biphenyl-2-yl ester], the IC50 in test [1] worked out at 0.061 µM; in test [4] (Table 1), 0.02 µM. Further, the MIC in test [2] (Table 1) and in test [3] (Table 1) was 1 µg/mL (≈ 2.19 µM) in each case.

Regarding `CCOc1cc(Cc2cnc(N)nc2N)cc(OS(=O)(=O)C(C)CC)c1-c1cccc(N)c1` (stereo not drawn) [Example 14g, Butane-2-sulphonic acid 3′-amino-4-(2,4-diamino-pvrimidin-5-ylmethyl)-6-ethoxy-biphenyl-2-yl ester], the IC50 worked out at 0.03 µM in test [1] and 0.0037 µM in test [4] (Table 1). The MIC in test [2] (Table 1) and in test [3] (Table 1) was 1 µg/mL (≈ 2.12 µM) in each case.

As for `CCOc1cc(Cc2cnc(N)nc2N)cc(OS(C)(=O)=O)c1-c1ccc(O)cc1` [Example 15-a, Methanesulphonic acid 4-(2,4-diamino-pyrimidin-5-ylmethyl)-6-ethoxy-4′-hydroxy-biphenyl-2-yl ester], the IC50 in test [1] was found to be 0.55 µM; in test [4] (Table 2), 0.032 µM. The results for the MIC in test [2] (Table 2) and in test [3] (Table 2) were 8 µg/mL (≈ 18.6 µM) and 4 µg/mL (≈ 9.29 µM), respectively.

With `CCOc1cc(Cc2cnc(N)nc2N)cc(OS(=O)(=O)CC)c1-c1ccc(O)cc1` [Example 15-b, Ethanesulphonic acid 4-(2,4-diamino-pyrimidin-5-ylmethyl)-6-ethoxy-4′-hydroxy-biphenyl-2-yl ester], the results for the IC50 in test [1] and in test [4] (Table 2) were 0.18 µM and 0.023 µM, respectively. For the same compound, the MIC is 4 µg/mL (≈ 9 µM) in test [2] (Table 2) and 2 µg/mL (≈ 4.5 µM) in test [3] (Table 2).

For the compound `CCOc1cc(Cc2cnc(N)nc2N)cc(OS(=O)(=O)C(C)C)c1-c1ccc(O)cc1` [Example 15-c, Propane-2-sulphonic acid 4-(2,4-diamino-pyrimidin-5-ylmethyl)-6-ethoxy-4′-hydroxy-biphenyl-2-yl ester], the IC50 in test [1] came to 0.064 µM; in test [4] (Table 2), 0.012 µM. Besides, the MIC in test [2] (Table 2) and in test [3] (Table 2) was 1 µg/mL (≈ 2.18 µM) in each case.

With `CCCS(=O)(=O)Oc1cc(Cc2cnc(N)nc2N)cc(OCC)c1-c1ccc(O)cc1` [Example 15-d, Propane-1-sulphonic acid 4-(2,4-diamino-primidin-5-ylmethyl)-6-ethoxy-4′-hydroxy-biphenyl-2-yl ester], the values for the IC50 in test [1] and in test [4] (Table 2) were 0.062 µM and 0.018 µM, respectively. Further, the MIC in test [2] (Table 2) turned out to be 2 µg/mL (≈ 4.36 µM); in test [3] (Table 2) it was 1 µg/mL (≈ 2.18 µM).

On to `CCOc1cc(Cc2cnc(N)nc2N)cc(OS(=O)(=O)C2CC2)c1-c1ccc(O)cc1` [Example 15-e, Cylopropanesulphonic acid 4-(2,4-diamino-pyrimidin-5-ylmethyl)-6-ethoxy-4′-hydroxn-biphenyl-2-yl ester], for which the IC50 in test [1] was 0.094 µM; in test [4] (Table 2), 0.012 µM. In addition, the MIC in test [2] (Table 2) was 8 µg/mL (≈ 17.5 µM); in test [3] (Table 2), 1 µg/mL (≈ 2.19 µM).

On to `CCOc1cc(Cc2cnc(N)nc2N)cc(OS(=O)(=O)CC(C)C)c1-c1ccc(O)cc1` [Example 15-f, 2-Methyl-propane-1-sulphonic acid 4-(2,4-diamino-pyrimidin-5-ylmethyl)-6-ethoxy-4′-hydroxy-biphenyl-2-yl ester], for which the IC50 in test [1] worked out at 0.38 µM; in test [4] (Table 2), 0.0067 µM. Moreover, the values for the MIC in test [2] (Table 2) and in test [3] (Table 2) were 4 µg/mL (≈ 8.46 µM) and 0.5 µg/mL (≈ 1.06 µM), respectively.

Consider `CCOc1cc(Cc2cnc(N)nc2N)cc(OS(=O)(=O)C(C)CC)c1-c1ccc(O)cc1` (stereo not drawn) [Example 15-g, Butane-2-sulphonic acid 4-(2,4-diamino-Dyrimidin-5-ylmethyl)-6-ethoxy-4′-hydroxy-biphenyl-2-yl ester], for which the IC50 in test [1] came to 0.039 µM; in test [4] (Table 2), 0.025 µM. For the same compound, the MIC in test [2] (Table 2) worked out at 2 µg/mL (≈ 4.23 µM); in test [3] (Table 2) it was 0.5 µg/mL (≈ 1.06 µM).

As to `CCOc1cc(Cc2cnc(N)nc2N)cc(OS(=O)(=O)CC(C)(C)C)c1-c1ccc(O)cc1` [Example 15-h, 2,2-Dimethyl-propane-1-sulphonic acid 4-(2,4-diamino-pyrimidin-5-ylmethyl)-6-ethoxy-4′-hydroxa-biphenyl-2-yl ester], the IC50 stood at 0.92 µM in test [1] and 0.0041 µM in test [4] (Table 2). Moreover, the MIC was found to be 4 µg/mL (≈ 8.22 µM) in test [2] (Table 2) and 0.25 µg/mL (≈ 0.514 µM) in test [3] (Table 2).

Take `CCOc1cc(Cc2cnc(N)nc2N)cc(OS(=O)C(C)(C)C)c1-c1ccc(O)cc1` (stereo not drawn) [Example 15-i, 2-Methyl-propane-2-sulphinic acid 4-(2,4-diamino-pyrimidin-5-ylmethyl)-6-ethoxy-4′-hydroxy-biphenyl-2-yl ester]: the results for the IC50 in test [1] and in test [4] (Table 2) were 0.081 µM and 0.022 µM, respectively. For the same compound, the MIC in test [2] (Table 2) was determined as 2 µg/mL (≈ 4.38 µM); in test [3] (Table 2) it was 4 µg/mL (≈ 8.76 µM).

As for `CCOc1cc(Cc2cnc(N)nc2N)cc(OS(=O)(=O)c2ccc(OC)c(F)c2)c1-c1ccc(O)cc1` [Example 15-j, 3-Fluoro-4-methoxy-benzenesulphonic acid 4-(2,4-diamino-pyrimidin-5-ylmethyl)-6-ethoxy-4′-hydroxy-biphenyl-2-yl ester], the IC50 in test [1] worked out at 0.55 µM; in test [4] (Table 2), 0.0017 µM. The MIC in test [2] (Table 2) amounted to 8 µg/mL (≈ 14.8 µM); in test [3] (Table 2), 1 µg/mL (≈ 1.85 µM).

Usually IC50 stands for the concentration at which inhibition is half-maximal.

The record behind these values is patent US6821980B1, “Substituted 5-benzyl-2,4-diaminopyrimidines” (Basilea Pharmaceutica AG, priority 1999, dated 2004).
